Results: BindingDB's records for doi:10.1124/jpet.104.074864 (University of Piemonte Orientale, 2005)

Legend:
Cannabinoid receptor 2 = Cannabinoid receptor 2 (Homo sapiens, UniProt P34972)
[1] = target: T1, Fatty-acid amide hydrolase 1 [30-579] (Rattus norvegicus, UniProt P97612)
T1 construct: 30-579
T1 sequence (P97612 whole entry): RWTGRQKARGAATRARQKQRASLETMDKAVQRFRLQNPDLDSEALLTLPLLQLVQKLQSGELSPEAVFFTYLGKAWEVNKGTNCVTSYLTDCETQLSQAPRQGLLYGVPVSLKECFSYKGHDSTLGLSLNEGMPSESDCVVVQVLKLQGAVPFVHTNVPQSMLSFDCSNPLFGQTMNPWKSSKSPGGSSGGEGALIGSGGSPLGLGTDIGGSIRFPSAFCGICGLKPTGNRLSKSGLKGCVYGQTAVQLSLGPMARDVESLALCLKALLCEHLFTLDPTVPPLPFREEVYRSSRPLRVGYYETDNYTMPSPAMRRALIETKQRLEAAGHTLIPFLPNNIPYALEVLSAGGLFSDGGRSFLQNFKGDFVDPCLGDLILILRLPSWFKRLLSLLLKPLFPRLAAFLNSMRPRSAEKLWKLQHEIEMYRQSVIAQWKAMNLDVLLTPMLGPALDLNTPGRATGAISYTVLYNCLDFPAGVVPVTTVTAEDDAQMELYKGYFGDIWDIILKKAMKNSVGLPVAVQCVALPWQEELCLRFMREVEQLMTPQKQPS

Cannabinoid receptor 1 = Cannabinoid receptor 1 (Homo sapiens, UniProt P21554)
Sequence of Cannabinoid receptor 1 (P21554 whole entry): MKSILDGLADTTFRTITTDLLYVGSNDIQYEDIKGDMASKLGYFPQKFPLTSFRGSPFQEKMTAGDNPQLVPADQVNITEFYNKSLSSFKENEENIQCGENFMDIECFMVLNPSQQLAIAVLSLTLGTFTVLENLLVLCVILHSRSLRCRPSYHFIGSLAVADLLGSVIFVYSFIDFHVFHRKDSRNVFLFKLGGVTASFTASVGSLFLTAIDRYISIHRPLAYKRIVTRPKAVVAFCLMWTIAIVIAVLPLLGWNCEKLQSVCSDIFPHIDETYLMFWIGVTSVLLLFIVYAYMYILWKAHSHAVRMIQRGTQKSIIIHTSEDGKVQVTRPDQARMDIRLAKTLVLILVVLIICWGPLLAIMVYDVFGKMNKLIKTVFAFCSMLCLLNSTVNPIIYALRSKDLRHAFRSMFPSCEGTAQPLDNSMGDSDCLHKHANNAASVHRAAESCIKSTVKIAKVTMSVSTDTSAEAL

Sequence of Cannabinoid receptor 2 (P34972 whole entry): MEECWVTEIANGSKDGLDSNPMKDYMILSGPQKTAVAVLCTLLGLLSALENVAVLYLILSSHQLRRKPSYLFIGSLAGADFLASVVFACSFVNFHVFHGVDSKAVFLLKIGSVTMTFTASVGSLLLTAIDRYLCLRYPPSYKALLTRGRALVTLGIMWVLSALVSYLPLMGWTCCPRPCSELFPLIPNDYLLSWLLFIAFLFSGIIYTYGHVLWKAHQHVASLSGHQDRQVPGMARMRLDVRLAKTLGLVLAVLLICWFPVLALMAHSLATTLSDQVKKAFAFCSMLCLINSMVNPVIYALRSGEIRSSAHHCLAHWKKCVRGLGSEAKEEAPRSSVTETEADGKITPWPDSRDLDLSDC

COc1cc(CNC(=O)CCCCC=CC(C)C)ccc1O [CAS_404-86-4]
Ki (Cannabinoid receptor 2): > 10000 nM
Ki [1]: > 10 µM

CCCCCCCCC=CCCCCCCCC(=O)NCc1ccc(O)c(OC)c1 [CAS_58493-49-5]
Ki (Cannabinoid receptor 2): > 10000 nM
Ki [1]: > 10 µM
Ki (Cannabinoid receptor 1): > 10000 nM

CCCCCC[C@H](CC=CCCCCCCCC(=O)NCc1cc(I)c(O)c(OC)c1)OC(=O)Cc1ccccc1 [PhAR, 5-I]
Ki (Cannabinoid receptor 2): 1500 nM
Ki [1]: > 10 µM
Ki (Cannabinoid receptor 1): 5000 nM

CCCCCC[C@H](CC=CCCCCCCCC(=O)NCc1cc(OC)c(O)cc1I)OC(=O)Cc1ccccc1 [PhAR, 6-I]
Ki (Cannabinoid receptor 2): 2200 nM
Ki [1]: > 10 µM
Ki (Cannabinoid receptor 1): 2500 nM

CCCCCCC(CCCCCCCCCCC(=O)NCc1ccc(O)c(OC)c1)OC(=O)Cc1ccccc1 (stereo not given) [PhAR, Di-hydro]
Ki (Cannabinoid receptor 2): 1100 nM
Ki [1]: > 10 µM
Ki (Cannabinoid receptor 1): 5000 nM

CCCCCCC(C/C=C/CCCCCCCC(=O)NCc1ccc(O)c(OC)c1)OC(=O)Cc1ccccc1 (stereo not drawn) [PhAR, ent]
Ki (Cannabinoid receptor 2): 400 nM
Ki [1]: > 10 µM
Ki (Cannabinoid receptor 1): 2400 nM

CCCCCC[C@H](CC=CCCCCCCCC(=O)NCc1ccc(O)c(OC)c1)OC(=O)Cc1ccccc1 [PhAR]
Ki (Cannabinoid receptor 2): 300 nM
Ki [1]: > 10 µM
Ki (Cannabinoid receptor 1): 2200 nM

CCCCCC[C@H](CC=CCCCCCCCC(=O)NCc1ccc(O)c(OC)c1)OC(C)=O [Rinvanil, Acetyl]
Ki (Cannabinoid receptor 2): > 10000 nM
Ki [1]: > 10 µM
Ki (Cannabinoid receptor 1): > 10000 nM

CCCCCC[C@H](CC=CCCCCCCCC(=O)NCc1ccc(O)c(OC)c1)OC(=O)c1ccccc1 [Rinvanil, Benzoil]
Ki (Cannabinoid receptor 2): 1400 nM
Ki [1]: > 10 µM
Ki (Cannabinoid receptor 1): 1300 nM

CCCCCC[C@H](CC=CCCCCCCCC(=O)NCc1ccc(O)c(OC)c1)OC(=O)CCc1ccccc1 [Rinvanil, Phenyl-propionyl]
Ki [1]: > 10 µM

CCCCCC[C@@H](O)CC=CCCCCCCCC(=O)NCc1ccc(O)c(OC)c1 [Rinvanil]
Ki (Cannabinoid receptor 2): > 10000 nM
Ki [1]: > 10 µM
Ki (Cannabinoid receptor 1): > 10000 nM
